According to patent US8735414B2 (priority 2009, dated 2014):

These compounds were tested on bicistronic HCV replicon (replicon RNA, GenBank Accession No. AJ242654) (assay: HCV Replicon Assay). Conditions: Hepatitis C virus, 72 h, read-out: Replicon IC50.
Format: cell-based
In the case of `Cc1cc2c(cc1F)c(C#N)c(-c1ncc(S(=O)(=O)N[C@@H](C)C(F)(F)F)cn1)n2C1CCOCC1` [compound 753, 2-[3-cyano-5-fluoro-6-methyl-1-(tetrahydro-2H-pyran-4-yl)-1H-indol-2-yl]-N-[(2S)-1,1,1-trifluoropropan-2-yl]pyrimidine-5-sulfonamide], the IC50 is reported as < 500 nM. For `COC(=O)c1c(-c2ccc(S(=O)(=O)NC(C)(C)C(F)(F)F)cn2)n(C2CCCC2)c2cc(C)c(F)cc12` [compound 754, methyl 1-cyclopentyl-5-fluoro-6-methyl-2-{5-[(1,1,1-trifluoro-2-methylpropan-2-yl)sulfamoyl]pyridin-2-yl}-1H-indole-3-carboxylate], the IC50 was < 500 nM. With `COC(=O)c1c(-c2ccc(S(=O)(=O)NC(C)(C)C)cn2)n(C2CCCC2)c2cc(C)c(F)cc12` [compound 755, methyl 2-[5-(tert-butylsulfamoyl)pyridin-2-yl]-1-cyclopentyl-5-fluoro-6-methyl-1H-indole-3-carboxylate] the IC50 was < 500 nM. For `COC(=O)c1c(-c2ccc(S(=O)(=O)N[C@@H](C)C(F)(F)F)cn2)n(C2CCCC2)c2cc(C)c(F)cc12` [compound 756, (S)-methyl 1-cyclopentyl-5-fluoro-6-methyl-2-(5-(N-(1,1,1-trifluoropropan-2-yl)sulfamoyl)pyridin-2-yl)-1H-indole-3-carboxylate], the IC50 was < 500 nM. `Cc1cc2c(cc1F)c(C(=O)O)c(-c1ccc(S(=O)(=O)N[C@@H](C)C(F)(F)F)cn1)n2C1CCCC1` [compound 758, (S)-1-cyclopentyl-5-fluoro-6-methyl-2-(5-(N-(1,1,1-trifluoropropan-2-yl)sulfamoyl)pyridin-2-yl)-1H-indole-3-carboxylic acid] was tested, and the IC50 was < 500 nM. With `Cc1cc2c(cc1F)cc(-c1ccc(S(=O)(=O)N[C@@H](C)C(F)(F)F)cn1)n2C1CCCC1` [compound 760, 6-(1-cyclopentyl-5-fluoro-6-methyl-1H-indol-2-yl)-N-[(2S)-1,1,1-trifluoropropan-2-yl]pyridine-3-sulfonamide] the IC50 was < 500 nM. For `CNC(=O)c1c(-c2ccc(S(=O)(=O)N[C@@H](C)C(F)(F)F)cn2)n(C2CCCC2)c2cc(C)c(F)cc12` [compound 761, (S)-1-cyclopentyl-5-fluoro-N,6-dimethyl-2-(5-(N-(1,1,1-trifluoropropan-2-yl)sulfamoyl)pyridin-2-yl)-1H-indole-3-carboxamide], the IC50 was < 500 nM. For `COC(=O)c1c(-c2ccc(S(=O)(=O)NC(C)(C)C)cn2)n(C2CCC2)c2cc(C)c(F)cc12` [compound 770, methyl 2-[5-(tert-butylsulfamoyl)pyridin-2-yl]-1-cyclobutyl-5-fluoro-6-methyl-1H-indole-3-carboxylate], the IC50 was < 500 nM. `COC(=O)c1c(-c2ccc(S(=O)(=O)N[C@@H](C)C(F)(F)F)cn2)n(C2CCC2)c2cc(C)c(F)cc12` [compound 771, methyl 1-cyclobutyl-5-fluoro-6-methyl-2-(5-{[(2S)-1,1,1-trifluoropropan-2-yl]sulfamoyl}pyridin-2-yl)-1H-indole-3-carboxylate] was tested, and the IC50 was < 500 nM. Work on `C[C@H](NS(=O)(=O)c1ccc(-c2c(C#N)c3c(F)cc(OC(F)F)cc3n2CC2CC2)nc1)C(F)(F)F` [compound 773, 6-[3-cyano-1-(cyclopropylmethyl)-6-(difluoromethoxy)-4-fluoro-1H-indol-2-yl]-N-[(2S)-1,1,1-trifluoropropan-2-yl]pyridine-3-sulfonamide] yielded an IC50 of 500 to 2000 nM. For `COC(=O)c1c(-c2ncc(S(=O)(=O)N[C@@H](C)C(F)(F)F)cn2)n(C2CCC2)c2cc(C)c(F)cc12` [compound 774, methyl 1-cyclobutyl-5-fluoro-6-methyl-2-(5-{[(2S)-1,1,1-trifluoropropan-2-yl]sulfamoyl}pyrimidin-2-yl)-1H-indole-3-carboxylate], the IC50 was < 500 nM. Work on `Cc1cc2c(cc1F)c(C(=O)O)c(-c1ncc(S(=O)(=O)N[C@@H](C)C(F)(F)F)cn1)n2C1CCC1` [compound 775, 1-cyclobutyl-5-fluoro-6-methyl-2-(5-{[(2S)-1,1,1-trifluoropropan-2-yl]sulfamoyl}pyrimidin-2-yl)-1H-indole-3-carboxylic acid] yielded an IC50 of 500 to 2000 nM. `Cc1cc2c(cc1F)c(C(=O)O)c(-c1ccc(S(=O)(=O)NC(C)(C)C)cn1)n2C1CCC1` [compound 776, 2-[5-(tert-butylsulfamoyl)pyridin-2-yl]-1-cyclobutyl-5-fluoro-6-methyl-1H-indole-3-carboxylic acid] was tested, and the IC50 was < 500 nM. `CCc1cc2c(cc1F)c(C#N)c(-c1ccc(S(=O)(=O)N[C@@H](C)C(F)(F)F)cn1)n2-c1ccccn1` [compound 778, 6-[3-cyano-6-ethyl-5-fluoro-1-(pyridin-2-yl)-1H-indol-2-yl]-N-[(2S)-1,1,1-trifluoropropan-2-yl]pyridine-3-sulfonamide] was tested, and the IC50 was < 500 nM. `CCC(NS(=O)(=O)c1ccc(-c2c(C#N)c3cc(F)c(OC(F)F)cc3n2C2CCC2)nc1)C(F)(F)F` (stereo not shown) [compound 790, 6-[3-cyano-1-cyclobutyl-6-(difluoromethoxy)-5-fluoro-1H-indol-2-yl]-N-(1,1,1-trifluorobutan-2-yl)pyridine-3-sulfonamide] was tested, and the IC50 was < 500 nM. With `CNC(=O)c1c(-c2ccc(S(=O)(=O)N[C@@H](C)C(F)(F)F)cn2)n(C2CCC2)c2cc(C)c(F)cc12` [compound 801, 1-cyclobutyl-5-fluoro-N,6-dimethyl-2-(5-{[(2S)-1,1,1-trifluoropropan-2-yl]sulfamoyl}pyridin-2-yl)-1H-indole-3-carboxamide] the IC50 was < 500 nM. With `Cc1c(F)c(OC(F)F)cc2c1c(C#N)c(-c1ccc(S(=O)(=O)N[C@@H](C)C(F)(F)F)cn1)n2C1CCC1` [compound 810, 6-[3-cyano-1-cyclobutyl-6-(difluoromethoxy)-5-fluoro-4-methyl-1H-indol-2-yl]-N-[(2S)-1,1,1-trifluoropropan-2-yl]pyridine-3-sulfonamide] the IC50 was < 500 nM. With `N#Cc1c(-c2ccc(S(=O)(=O)NC3(C(F)(F)F)CC3)cn2)n(C2CCC2)c2cc(O)c(F)cc12` [compound 813, 6-(3-cyano-1-cyclobutyl-5-fluoro-6-hydroxy-1H-indol-2-yl)-N-[1-(trifluoromethyl)cyclopropyl]pyridine-3-sulfonamide] the IC50 was 500 to 2000 nM. For `Cc1cc2c(cc1F)c(C#N)c(-c1ccc(S(=O)(=O)N[C@@H](C)C(F)(F)F)cn1)n2-c1ncccc1F` [compound 814, 6-[3-cyano-5-fluoro-1-(3-fluoropyridin-2-yl)-6-methyl-1H-indol-2-yl]-N-[(2S)-1,1,1-trifluoropropan-2-yl]pyridine-3-sulfonamide], the IC50 was < 500 nM. With `COc1ccnc(-n2c(-c3ccc(S(=O)(=O)N[C@@H](C)C(F)(F)F)cn3)c(C#N)c3cc(F)c(C)cc32)c1` [compound 816, 6-[3-cyano-5-fluoro-1-(4-methoxypyridin-2-yl)-6-methyl-1H-indol-2-yl]-N-[(2S)-1,1,1-trifluoropropan-2-yl]pyridine-3-sulfonamide] the IC50 was < 500 nM. With `CC(C)(C)NS(=O)(=O)c1ccc(-c2c(C#N)c3cc(F)ccc3n2-c2ncccn2)nc1` [compound 823, N-tert-butyl-6-[3-cyano-5-fluoro-1-(pyrimidin-2-yl)-1H-indol-2-yl]pyridine-3-sulfonamide] the IC50 was 500 to 2000 nM. With `Cc1cc2c(cc1F)c(C#N)c(-c1ccc(S(=O)(=O)NC(C)(C)C)cn1)n2-c1ncccn1` [compound 824, N-tert-butyl-6-[3-cyano-5-fluoro-6-methyl-1-(pyrimidin-2-yl)-1H-indol-2-yl]pyridine-3-sulfonamide] the IC50 was < 500 nM.
